Experimental findings from patent US20220119446A1, “BIOMARKERS AND TREATMENT OF NEURONAL INJURY AND NEURODEGENERATION” (Board of Supervisons of Louisiana State University and …, priority 2018, published 2022) are described below.

This test relates to Wnt5a. Kind of test: SYBR green real-time PCR of Wnt5a mRNA in human primary RPE (hpRPE) cells under UOS. The test is classed as cell-based. As to the method: ARPE-19 cells, can be plated and grown in DMEM/F-12 containing 10% FBS and 1× penicillin/streptomycin at 37° C., 5% CO2, 99% relative humidity for 24 h. […] 15-LOX-1 deficient cells can be maintained in the same medium as ARPE-19 with the addition of 500 μg/mL Geneticin (Life Technologies Corporation, Carlsbad, Calif.). Transfection can be performed in all cases using Lipofectamine 2000 (Life Technologies Corporation, Carlsbad, Calif.) following the manufacturer's recommendations. […] Experiments with transfection efficiency that yielded less than 80% can be discarded. For siRNA, we used 6 μl of Lipofectamine 2000 per 50 pmol of siRNA per mL of incubation medium, and, for plasmids, we used 6 μl of Lipofectamine 2000 per 2 μg of plasmid per mL of incubation medium. Cells can be incubated for 5 hours at 37° C., 5% CO2 and 99% relative humidity. […] When siRNA/plasmid co-transfection is required, siRNA and plasmid-carrying transfection mixes can be prepared separately and added one after the other in the same well. Oxidative stress treatments can be performed using 600 (ARPE-19) or 1600 (hRPE) μM H2O2, along with 10 ng/mL TNFα, for the required time indicated in each experiment. The treatment we used employed the low serum (0.5% serum) without hFGF. Treatment to induce uncompensated oxidative stress (UOS) can be performed after 8 hours of low-serum medium incubation unless specifically noted. […]
Background: Quantitative PCR measures a nucleic acid by following its amplification.

Molecules are shown by their SMILES. Entries after “also recorded” stand apart in the source; their conditions may differ.

On to `CC/C=C\C[C@H](O)\C=C/C=C/C=C/[C@H](O)C/C=C\C/C=C\CCC(=O)O` [NPD1, 10R,17S-dihydroxy-docosa-4Z,7Z,11E,13E,15Z,19Z-hexaenoic acid], for which the “Wnt5a transcription (mRNA)” value (hpRPE cells, UOS 1,600 μM H2O2 and 10 ng/ml TNFα, 6 hours) is reported as “down regulated Wnt5a transcription; also recorded: decreased Wnt5a expression”. Further, the “increase of Wnt5a expression on cRel silencing” value (hpRPE, UOS plus NPD1, 12-fold in control, 8-fold in UOS) is given as 4 fold.
